The values that follow come from paper PMC8305076, “Comprehensive Evaluation of Biological Effects of Pentathiepins on Various Human Cancer Cell Lines and Insights into Their Mode of Action” (International Journal of Molecular Sciences, 2021).

Read-outs that look alike come from different tables or passages of the source.

The subject of one assay is seven cancer cell lines. Nature of the assay: DCFDA flow cytometric ROS assay, acute. The assay is classed as cell-based, human. The conditions noted are these: summary grade. More on the design: key: no impact (0); weak impact (+); strong impact (++). Here is the method: According to the hypothesized mechanism of action (see Figure 3), pentathiepins can create oxidative stress via generation of reactive sulfur precursors. We have previously reported that a representative pentathiepin can increase the intracellular levels of ROS in two cancer cell lines. This effect was thus further evaluated with the new compounds in seven cell lines (Figure 8). The cells were incubated for 15 min with 25.0 µM pentathiepin and subsequently analyzed by using the intracellular ROS sensor 2′,7′-dichlorodihydrofluorescein diacetate (DCFDA) by flow cytometry.
In order to quantify intracellular ROS, we performed a flow cytometric assay based on the ROS-sensor 2′,7′-dichlorofluorescein diacetate (DCFDA). For acute effects of pentathiepins on intracellular ROS levels, the cells were stained with DCFDA first and subsequently incubated with 25 µM of compound for 10 min. […] Per condition, 250,000 cells were seeded in 2 mL of medium per well of a 6-well plate and allowed to adhere overnight. For measurement of acute ROS, the cells were stained with 1 mL of a 20 µM DCFDA-PBS solution for 30 min under standard incubation conditions. Afterwards, the solution was discarded, and the monolayer washed twice with 1 mL of PBS before 3 mL of medium containing 25 µM of pentathiepin was added for 10 min at 37 °C. After removing the solution and washing again with PBS, the cells were detached by using 0.5 mL of a diluted trypsin/EDTA-PBS solution (25%) and harvested with 1 mL of culture medium by carefully rinsing the wells. The cell suspension was transferred to 1.5 mL tubes, centrifuged for 5 min at 500× g, and washed with 1 mL of PBS. After removing the supernatant, each pellet was resuspended in 0.5 mL of PBS for measurement via the MACSquant Analyzer 10 at λEx/Em = 488/530 nm. Relative ROS levels resulting from treatment with pentathiepin were calculated by relating the fluorescence intensity of treated samples to the negative control. For the experiments covering periods of 24 and 48 h, the cells were incubated with the compounds first and stained with DCFDA afterwards. To assess the influence of additional GSH, we included 3 or 30 µM GSH to the medium containing 25 µM of pentathiepin, and the protocol was followed as described.

A further assay has as its target T1, bovine erythrocyte GPx1 (Bos taurus, UniProt P00435).
T1 construct: the isolated enzyme from bovine erythrocytes; purchased Sigma-Aldrich (Taufkirchen, Germany); host or cells: isolated from bovine erythrocytes
T1 sequence (P00435 1-205): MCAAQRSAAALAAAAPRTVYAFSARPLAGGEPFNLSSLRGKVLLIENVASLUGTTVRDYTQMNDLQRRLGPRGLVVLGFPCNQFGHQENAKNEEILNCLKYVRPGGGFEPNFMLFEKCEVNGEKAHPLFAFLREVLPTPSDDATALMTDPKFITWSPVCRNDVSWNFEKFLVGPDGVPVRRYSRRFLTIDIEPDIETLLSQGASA
Nature of the assay: GPx1 enzyme activity assay (NADPH-coupled, t-BHP substrate). In kind it is biochemical. Further details: key to GPx1 inhibition: no impact (0); weak impact (+); strong impact (++). The conditions noted are these: for IC50: n ≥ 3; for GPx1 inhibition: summary grade. From the text: The inhibition of GPx1 by pentathiepins has already been reported by us previously. […] The resulting glutathione disulfide (GSSG) was reduced back to GSH by glutathione reductase (GR), thereby converting NADPH to NADP^+, which can be photometrically monitored at λ = 340 nm. The rate of NADPH consumption was used to quantify GPx1 enzyme activity. Dose-response graphs are presented in Figure 5a, and the corresponding IC50 values in Table 1. Relative IC50 describing the half-maximal inhibition of the enzyme were derived from the inflection point of the sigmoidal shaped graphs. Absolute IC50 was calculated via interpolation of the standard curve resulting in the concentration at which 50% of the GPx1 was inhibited.
The potential of the pentathiepins to inhibit the GPx1 was assessed with an enzymatic assay as described previously. It is based on the catalytic cycle of the enzyme coupled to an NADPH detection reaction. Here, a bovine erythrocyte GPx1 with a sequence similarity of 87% to the human homolog was used for reasons of affordability. The GPx1 was treated with either vehicle (solvent DMF) or the respective pentathiepin, and the reaction started by addition of tert-butylhydroperoxide (t-BHP). For the assay, all solutions were prepared with potassium phosphate buffer (50 mM, pH 7.4, EDTA 1.1 mM, Triton-X 0.01%), except for the inhibitors and t-BHP, which were diluted in DMF or water, respectively. First, 180 µL of a 0.125 U/mL GPx1 solution and 30 µL of a serial dilution of the putative inhibitor dissolved in DMF were added in triplicate to the wells of a UV-transparent 96-well plate. As a negative control, only DMF was appliedat the same dilution as the inhibitor solution.. All reagents including the GPx1 solution were pipetted. Then, 30 µL of a GSH solution (2.5 mM) and 30 µL of a GR/NADPH solution (2 U/mL; 2.0 mM) were added per well. The reaction was started by adding 30 µL of a t-BHP solution (5.0 mM). […] GPx1 activity was indirectly measured by monitoring the decrease of NADPH at λ = 340 nm for 30 min every 15 s at room temperature. The GPx1 activity of the treated samples was related to the solvent treated control and the relative activities analyzed in Prism 7 (GraphPad) via dose–response graphs and the calculation of the inflection point corresponding to the relative IC50 (half-maximal inhibitory concentration). The relative IC50 corresponds to the concentration at which half of the effect of the test compound is achieved. An absolute IC50, where 50% of the enzyme is inhibited, was calculated via interpolation of the sigmoidal graph.

The mark [1] stands for this setting: absolute IC50 (interpolation, 50% of GPx1 inhibited), read-out: Abs. IC50 (SD).
Where [2] appears, read: relative IC50 (inflection point of dose-response graph), t-BHP substrate, read-out: Rel. IC50 (CI 95%).
Setting [3] is: residual GPx1 activity at highest tested concentration of 12.5 µM.

`CCOc1c2c(c3ccc(C(=O)N4CCN(C(=O)c5ccc(F)cc5)CC4)cn13)SSSSS2` [Compound 5, (6-Ethoxy-[1,2,3,4,5]pentathiepino[6,7-a]indolizin-9-yl)(4-(4-fluorobenzoyl)piperazinyl)methanone]: the ROS induction entry in the assay with seven cancer cell lines is “++”. For the same molecule, the IC50 at bovine erythrocyte GPx1 (setting [1]) was found to be 1170 nM; on bovine erythrocyte GPx1 (setting [2]), 630 nM. The remaining activity at 12.5 µM at bovine erythrocyte GPx1 (setting [3]) is 28.7%. Moreover, the GPx1 inhibition result at bovine erythrocyte GPx1 is recorded as “++”.
On to `CCOc1c2c(c3ccc(C(=O)N4CCCCC4)cn13)SSSSS2` [Compound 2, (6-Ethoxy-[1,2,3,4,5]pentathiepino[6,7-a]indolizin-9-yl)(piperidinyl)methanone], for which the ROS induction result in the assay with seven cancer cell lines was “++”. The IC50 worked out at 3250 nM at bovine erythrocyte GPx1 (setting [1]) and 2280 nM on bovine erythrocyte GPx1 (setting [2]). The molecule also gave a remaining activity at 12.5 µM on bovine erythrocyte GPx1 (setting [3]) of 27.5%. In addition, the GPx1 inhibition entry at bovine erythrocyte GPx1 was “+”.
On the same counts, the results for `CCOc1c2c(c3ccc(C(=O)N4CCOCC4)cn13)SSSSS2` [Compound 3, (6-Ethoxy-[1,2,3,4,5]pentathiepino[6,7-a]indolizin-9-yl)(morpholino)methanone] are “++”, 910 nM, 560 nM, 29% and “++”.
With `CCOc1c2c(c3ccc(C(=O)N(CC)CC)cn13)SSSSS2` [Compound 4, 6-Ethoxy-N,N’-diethyl-[1,2,3,4,5]pentathiepino[6,7-a]indolizine-9-carboxamide], the ROS induction result in the assay on seven cancer cell lines is “++”. The half-maximal inhibitory concentration (IC50) on bovine erythrocyte GPx1 (setting [1]) turned out to be 750 nM; at bovine erythrocyte GPx1 (setting [2]) it was 600 nM. Besides, the remaining activity at 12.5 µM on bovine erythrocyte GPx1 (setting [3]) was 27.9%. Besides, the GPx1 inhibition entry at bovine erythrocyte GPx1 is “++”.
As to `CCOc1c2c(c3cnc4[nH]c(-c5ccc(OC)cc5)cc4n13)SSSSS2` [Compound 1, 11-Ethoxy-2-(4-methoxyphenyl)-3H-[1,2,3,4,5]pentathiepino[6′,7′:3,4]pyrrolo[1,2-a]pyrrolo[2,3-e]pyrazine], the ROS induction in the assay on seven cancer cell lines worked out at 0. Further, the half-maximal inhibitory concentration (IC50) worked out at 1490 nM at bovine erythrocyte GPx1 (setting [1]) and 920 nM on bovine erythrocyte GPx1 (setting [2]). The molecule also returned a remaining activity at 12.5 µM at bovine erythrocyte GPx1 (setting [3]) of 16%. Further, the “Residual Activity (%)” value on bovine erythrocyte GPx1 (residual GPx1 activity at highest tested concentration of 12.5 µM, 12.5 µM) was determined as 16.4%. On bovine erythrocyte GPx1, the GPx1 inhibition entry is recorded as “++”.
`CCOc1c2c(c3ccc(C(=O)N4CCN(S(=O)(=O)c5ccc(C)cc5)CC4)cn13)SSSSS2` [Compound 6, (6-Ethoxy-[1,2,3,4,5]pentathiepino[6,7-a]indolizin-9-yl)(4-tosylpiperazinyl)methanone]: the ROS induction entry with seven cancer cell lines is listed as “+”. For the same molecule, the IC50 at bovine erythrocyte GPx1 (setting [1]) and at bovine erythrocyte GPx1 (setting [2]) was over 12500 nM throughout. In addition, on bovine erythrocyte GPx1 (at 12.5 µM), the “decrease of the activity of the bovine GPx” value is at most 50%. Also, the remaining activity at 12.5 µM at bovine erythrocyte GPx1 (setting [3]) was found to be 53.3%. This molecule had a GPx1 inhibition at bovine erythrocyte GPx1 of 0.
